Test system: mice after CHI
Conditions: in words
Protocol: The procedure for closed head injury followed was as described for rats in Shohami et al. (J Neurotrauma (1993) 10(2) 109-119) with changes as described.
Animals: Male Sabra mice (Hebrew University strain) weighing 34-40 g were used. They were housed in groups of 10 per cage, in a 12 hr:12 hr. light:dark cycle. Food and water were provided ad libitium.
Trauma was induced under anaesthesia. A longitudinal incision was performed in the skin covering the skull and the skin retracted to expose the skull. The head was fixed manually at the lower plane of the impact apparatus. A weight of 333 g was delivered by an electric device from a distance of 3 cm to the left hemisphere, 1-2 mm lateral to the midline in the midcoronal plane.

C#CCN[C@H]1CCc2ccccc21 [S(-)PAI, S-(-)-N-propargyl-1-aminoindan]
latency to find the platform, compared to saline treated controls (FIG. 1, after CHI): reduction in latency | memory, compared to saline-treated mice (after CHI): Memory is enhanced
